Source: patent US11236055B2 (Venenum Biodesign, LLC, priority 2016, dated 2022)

How the values were obtained:
[1] = biological target: T1, human TGR5 receptor (Homo sapiens, UniProt Q8TDU6); assay: Human TGR5 cAMP production assay; assay type: cell-based; conditions: human TGR5, luminescent cAMP assay; coded A-D; read-out: Human TGR5 Lum. cAMP Activity (EC50)
T1 construct: host or cells: CHO-K1 (hTGR5-CHO cells)
T1 sequence (Q8TDU6 1-330): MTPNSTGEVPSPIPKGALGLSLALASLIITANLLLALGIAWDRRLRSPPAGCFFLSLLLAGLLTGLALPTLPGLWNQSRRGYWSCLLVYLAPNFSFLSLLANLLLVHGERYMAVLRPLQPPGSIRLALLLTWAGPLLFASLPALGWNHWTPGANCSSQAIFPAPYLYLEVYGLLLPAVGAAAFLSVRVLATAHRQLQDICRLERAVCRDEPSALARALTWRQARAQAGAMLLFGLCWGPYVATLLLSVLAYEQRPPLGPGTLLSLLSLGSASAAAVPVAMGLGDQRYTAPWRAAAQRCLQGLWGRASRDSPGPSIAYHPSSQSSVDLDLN
Outline: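 Intracellular cAMP read by luminescent enzyme-complementation (XS+) after overnight development, following 1 h room-temperature compound treatment of hTGR5-CHO-K1 cells in IBMX plus anti-cAMP antibody. Compounds tested as half-log dilution series; EC50 derived.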

[2] = biological target: T2, mouse TGR5 receptor (Mus musculus, UniProt Q80SS6); assay: Mouse TGR5 cAMP production assay (HTRF, Cisbio cAMP HiRange); assay type: cell-based; conditions: HEK293-EBNA cells overexpressing mouse TGR5, HTRF cAMP HiRange; coded A-D
T2 construct: expressed in transfected cells; host or cells: HEK293-EBNA (293 c18, ATCC CRL10852), Hygromycin B selection
T2 sequence (Q80SS6 1-329): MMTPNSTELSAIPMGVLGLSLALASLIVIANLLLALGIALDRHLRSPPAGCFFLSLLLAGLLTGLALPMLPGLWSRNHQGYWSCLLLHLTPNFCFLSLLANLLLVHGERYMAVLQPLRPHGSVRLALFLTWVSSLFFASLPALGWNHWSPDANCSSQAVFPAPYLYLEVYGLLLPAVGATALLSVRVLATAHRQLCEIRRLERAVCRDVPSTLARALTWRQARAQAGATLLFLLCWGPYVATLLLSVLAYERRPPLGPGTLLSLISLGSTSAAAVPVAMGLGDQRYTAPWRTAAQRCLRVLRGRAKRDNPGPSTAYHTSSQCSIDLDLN
Outline: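 cAMP read by HTRF competition after 1 h room-temperature compound exposure of mouse TGR5-overexpressing HEK293-EBNA cells. Cells were suspended in serum-free DMEM containing 500 μM IBMX; compounds ran as 12-point half-log dilutions in duplicate; EC50 derived.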

SMILES	EC50 [1] [µM]	EC50 [2] [µM]
CCc1cnccc1-c1cccc(C2CN(C(=O)CCC(=O)O)CCN2S(=O)(=O)c2cccc(Cl)c2C)c1 (racemic) [Compound 46, (+/−) 4-(4-((3-Chloro-2-methylphenyl)sulfonyl)-3-(3-(3-ethylpyridin-4-yl)phenyl)piperazin-1-yl)-4-oxobutanoic acid]	< 0.1	< 0.1
CCc1cnccc1-c1cccc(C(C)(C)NS(=O)(=O)c2ccccc2C(F)(F)F)c1 [Compound 5, N-(2-(3-(3-ethylpyridin-4-yl)phenyl)propan-2-yl)-2-(trifluoromethyl)benzenesulfonamide]	< 0.1	< 0.1
Cc1cnccc1-c1cccc(C(C)(C)NS(=O)(=O)c2cccc(C(F)(F)F)c2)c1 [Compound 5AA, N-(2-(3-(3-methylpyridin-4-yl)phenyl)propan-2-yl)-3-(trifluoromethyl)benzenesulfonamide]	< 0.1	
Cc1cnccc1-c1cccc(C(C)(C)N(CCCC(=O)O)S(=O)(=O)c2ccccc2C(F)(F)F)c1 [Compound 14, 4-(N-(2-(3-(3-methylpyridin-4-yl)phenyl)propan-2-yl)-2-(trifluoromethyl)phenylsulfonamido)butanoic acid]	< 0.1	< 0.1
CCc1cnccc1-c1cccc(C(C)(C)N(CCCC(=O)NCCS(=O)(=O)O)S(=O)(=O)c2ccccc2C(F)(F)F)c1 [Compound 20, 2-(4-(N-(2-(3-(3-ethylpyridin-4-yl)phenyl)propan-2-yl)-2-(trifluoromethyl)-phenylsulfonamido)butanamido)ethanesulfonic acid]	< 0.1	< 0.1
Cc1cnccc1-c1cccc(C(C)(C)N(CCCC(=O)NCCS(=O)(=O)O)S(=O)(=O)c2ccccc2C(F)(F)F)c1 [Compound 20AA, 2-(4-(N-(2-(3-(3-methylpyridin-4-yl)phenyl)propan-2-yl)-2-(trifluoromethyl)phenylsulfonamido)butanamido)ethanesulfonic acid]	< 0.1	< 0.1
Cc1cnccc1-c1cccc(C(C)(C)N(CCCC(=O)NCS(=O)(=O)O)S(=O)(=O)c2ccccc2C(F)(F)F)c1 [Compound 20AB]	< 0.1	< 0.1
CCc1cnccc1-c1cccc(C(C)(C)N(CCCC(=O)NCCS(=O)(=O)O)S(=O)(=O)c2cccc(Cl)c2C)c1 [Compound 20AC, 2-(4-(3-chloro-N-(2-(3-(3-ethylpyridin-4-yl)phenyl)propan-2-yl)-2-methylphenylsulfonamido)butanamido)ethanesulfonic acid]	< 0.1	< 0.1
Cc1cnccc1-c1cccc(C(C)(C)N(CCCC(=O)NCCCS(=O)(=O)O)S(=O)(=O)c2cccc(Cl)c2C)c1 [Compound 20AD, 3-(4-(3-chloro-2-methyl-N-(2-(3-(3-methylpyridin-4-yl)phenyl)propan-2-yl)phenylsulfonamido)butanamido)propane-1-sulfonic acid]	< 0.1	< 0.1
Cc1cnccc1-c1cccc(C(C)(C)N(CCCC(=O)NC[C@@H](O)[C@H](O)[C@@H](O)[C@@H](O)CO)S(=O)(=O)c2cccc(Cl)c2C)c1 [Compound 20AF, 4-(3-chloro-2-methyl-N-(2-(3-(3-methylpyridin-4-yl)phenyl)propan-2-yl)phenylsulfonamido)-N-((2R,3S,4S,5S)-2,3,4,5,6-pentahydroxyhexyl)butanamide]	< 0.1	< 0.1
Cc1cnccc1-c1cccc([C@H](C)N(CCCCC(=O)NCCS(=O)(=O)O)S(=O)(=O)c2cccc(Cl)c2C)c1 [Compound 20AH, (S)-2-(5-(3-chloro-2-methyl-N-(1-(3-(3-methylpyridin-4-yl)phenyl)ethyl)phenylsulfonamido)pentanamido)ethanesulfonic acid]	< 0.1	< 0.1
CCc1cnccc1-c1cccc([C@H](C)N(CCCC(=O)NCCCS(=O)(=O)O)S(=O)(=O)c2cccc(Cl)c2C)c1 [Compound 20AM, (S)-3-(4-(3-chloro-N-(1-(3-(3-ethylpyridin-4-yl)phenyl)ethyl)-2-methylphenylsulfonamido)butanamido)propane-1-sulfonic acid]	< 0.1	< 0.1
CCc1cnccc1-c1cccc([C@H](C)N(CCCC(=O)NC[C@@H](O)[C@H](O)[C@@H](O)[C@@H](O)CO)S(=O)(=O)c2cccc(Cl)c2C)c1 [Compound 20AN, 4-(3-chloro-N-((S)-1-(3-(3-ethylpyridin-4-yl)phenyl)ethyl)-2-methylphenylsulfonamido)-N-((2R,3S,4S,5S)-2,3,4,5,6-pentahydroxyhexyl)butanamide]	< 0.1	< 0.1
CCc1cnccc1-c1cccc([C@H](C)N(CCCC(=O)NCCS(=O)(=O)O)S(=O)(=O)c2ccccc2C)c1 [Compound 20AR, (S)-2-(4-(N-(1-(3-(3-ethylpyridin-4-yl)phenyl)ethyl)-2-methylphenyl-sulfonamido)butanamido)ethane sulfonic acid]	< 0.1	< 0.1
Cc1cnccc1-c1cccc(C(C)(C)N(CCCC(=O)NCCS(=O)(=O)NCC(=O)O)S(=O)(=O)c2cccc(Cl)c2C)c1 [Compound 20AW, (4-(3-chloro-2-methyl-N-(2-(3-(3-methylpyridin-4-yl)phenyl)propan-2-yl)phenylsulfonamido)-N-butanamidoethylsulfonamido)acetic acid]	< 0.1	< 0.1
CCc1cnccc1-c1cccc([C@H](C)N(CCCC(=O)NCCS(=O)(=O)O)S(=O)(=O)c2ccccc2C(F)(F)F)c1 [Compound 20BF, (S)-2-(4-(N-(1-(3-(3-ethylpyridin-4-yl)phenyl)ethyl)-2-(trifluoromethyl)phenylsulfonamido)butanamido)ethanesulfonic acid]	< 0.1	< 0.1
CCc1cnccc1-c1cccc([C@H](C)N(CCCC(=O)NCCS(=O)(=O)NCC(=O)O)S(=O)(=O)c2ccccc2C(F)(F)F)c1 [Compound 20BG]	< 0.1	< 0.1
Cc1cnccc1-c1cccc([C@H](C)N(CCCC(=O)NCCS(=O)(=O)NCCCC(=O)O)S(=O)(=O)c2ccccc2C(F)(F)F)c1 [Compound 20BK]	< 0.1	< 0.1
Cc1cnccc1-c1cccc([C@H](C)N(CCCCC(=O)NCCS(=O)(=O)NCC(=O)O)S(=O)(=O)c2ccccc2C(F)(F)F)c1 [Compound 20BL, (S) 2-(4-(N-(1-(3-(3-methylpyridin-4-yl)phenyl)ethyl)-2-(trifluoromethyl)phenylsulfonamidopentanamido)ethylsulfonamido)acetic acid]	< 0.1	< 0.1
Cc1cnccc1-c1cccc([C@H](C)N(CCCCC(=O)NCCS(=O)(=O)NCCC(=O)O)S(=O)(=O)c2ccccc2C(F)(F)F)c1 [Compound 20BM]	< 0.1	< 0.1
CCc1cnccc1-c1cccc([C@H](C)N(CCCC(=O)NCCS(=O)(=O)NCC(=O)O)S(=O)(=O)c2ccccc2C)c1 [Compound 20BU, (S)-2-(4-(2-methyl-N-(1-(3-(3-ethylpyridin-4-yl)phenyl)ethyl)phenylsulfonamido)butanamidoethylsulfonamido)acetate]	< 0.1	< 0.1
Cc1cnccc1-c1cccc(C(C)(C)N(CCCC(=O)NCC(=O)O)S(=O)(=O)c2cccc(Cl)c2C)c1 [Compound 21AB, 2-(4-(3-chloro-2-methyl-N-(2-(3-(3-methylpyridin-4-yl)phenyl)propan-2-yl)phenylsulfonamido)butanamido)acetic acid]	< 0.1	< 0.1
Cc1cnccc1-c1cccc([C@H](C)N(CCCC(=O)NCCS(=O)(=O)NCCC(=O)O)S(=O)(=O)c2cccc(Cl)c2C)c1 [Compound 21AL]	< 0.1	< 0.1
Cc1cnccc1-c1cccc([C@H](C)N(CCCC(=O)NCCS(=O)(=O)NCC(=O)O)S(=O)(=O)c2cccc(Cl)c2C)c1 [Compound 21AN, (S) 2-(3-(4-(3-chloro-2-methyl-N-(1-(3-(3-methylpyridin-4-yl)phenyl)ethyl)phenylsulfonamido)butanamido)ethylsulfonamido)acetic acid]	< 0.1	< 0.1
CCc1cnccc1-c1cccc([C@H](C)N(CCCC(=O)NCCS(=O)(=O)O)S(=O)(=O)c2cccc(Cl)c2C)c1 [Compound 21AQ, (S)-2-(4-(3-chloro-N-(1-(3-(3-ethylpyridin-4-yl)phenyl)ethyl)-2-methylphenylsulfonamido)butanamido)ethanesulfonic acid]	< 0.1	< 0.1
